Measurements as given in US8865672B2, “Prevention of tissue ischemia and related methods” (The United States of America, as represented by the …, priority 2006, dated 2014).

Legend:
[1] = test system: random myocutaneous flaps in mice; test: Random myocutaneous (McFarlane) flap model; assay type: in vivo, mouse
Protocol: WT and TSP1 null mice were matched for sex and age. Under isoflurane inhalation anesthesia 1×2 cm random myocutaneous flaps were raised. Where indicated, animals received either L-NAME (0.5 mg/ml) or ISDN (1 mg/ml) ad libitum in drinking water during the post-operative period. On postoperative day 7, the animals were again anesthetized with inhalation isoflurane and flaps evaluated. Viable and necrotic areas of the flaps were determined by color, refill, eschar, and the pin-prick test. Outlines of viable and nonviable areas were traced using transparent film and the area of flap necrosis versus total flap area determined as described (Yu et al., Proc Natl Acad Sci USA 102:10999-11004, 2005).
Wild type, TSP1 null, CD36 null and CD47 null mice were matched for sex and age underwent random dorsal myocutaneous flaps as described (Isenberg et al., Blood 2006; Example 2) and tissue harvested on postoperative day 7.
The necrotic area of the flap was determined as described (Isenberg et al., Blood. Nov. 2, 2006) Animals were then euthanized and flaps excised, fixed in 10% paraformaldehyde and processed for histology.
Random myocutaneous flap wound beds and/or ischemic hindlimb vastus medialis muscle was assessed at indicated time points (72 hours or 7 days post-operatively) for visible alterations in vascularity under 5× magnification. An arbitrary though strictly applied definition of countable vessels was employed to highlight both individual vessels and vascular ramifications. In any given vascular plexus visible by 5× magnification a vessel was defined as that segment traversing two branches. Visible vessels without ramifications and branches were counted once. Treatment status and genetic background of tissue images was not known by the reviewer.
Animals underwent creation of a random myocutaneous (McFarlane) flap as previously described (Isenberg et al., Blood 109:1945-1952, 2007). Some animals received either ISDN (1 mg/mL) or L-NAME (0.5 mg/ml) ad libitum in the drinking water during the post-operative interval.
Flap soft tissue units and underling wound beds were injected with control vehicle (normal saline), a CD47 morpholino or a control morpholino (10 μM) in sterile saline. Flap survival was determined as described.

[2] = test system: random dorsal cutaneous flaps in white hairless Yucatan miniature pigs; test: Porcine random cutaneous flap model; assay type: in vivo, pig; details: for flap necrosis: 2×10 cm flaps, injection at surgery
Protocol: Animals underwent shaving of the dorsal surface hair and cleansing of the skin with soap and alcohol. Random dorsal cutaneous flaps 2×10×0.5 cm were elevated and immediately sutured in place with interrupted 4-0 nylon suture (Ethicon, Johnson & Johnson, N.J.). Treated flaps were injected with the indicated amounts of drug in sterile normal saline. On the 3 and 7 post-operative days tissue survival was determined and flaps excised for histology. In some instances animals received intravenous fluorescein prior to euthanasia and flap perfusion assessed under ultra violet illumination.
Clinical assessment of flap perfusion was performed with notation of color, capillary refill and bleeding to needle stick being recorded. Flap dimensions were then traced onto a clear plastic sheet and with demarcation of viable and non-viable areas made.
The internal jugular vein and common carotid arteries were cannulated and the animals perfused with a volume of 5 L heparinized (50 U/mL) normal saline heated to 50° C. A mixture of India ink and gelatin (5%) heated to 50° C. (1 L) was administered by gently pressing and then releasing the plunger of the syringe to simulate the arterial pulse. The flaps were excised and placed in 100% glycerin and stored at 4° C. for 10 days. During this time flap tissue became thin, desiccated and transparent and allowed visualization of the vascular architecture under direct transillumination.

CD47 = test: Western analysis of CD47 in HUVEC; assay type: cell-based, human; details: morpholino 0.1-10 μM, 48 h
Protocol: HUVEC were plated in 12-well culture plates (5×10^4 cells/well) (Nunc, Denmark) in full growth medium and treated over 48 h with indicated doses of CD47 and control morpholino. Cells were subsequently washed twice with PBS and lysed immediately in 1×SDS sample buffer containing 10 µg/mL leupeptin, […] aprotinin, 1 mM Na3VO4, and 40 mM NaF. Lysates prepared in the SDS sample buffer described above were electrophoresed in 4-12% BisTris NuPAGE gels and transferred to PVDF membranes prior to immunoblotting with a monoclonal antibody to CD47 (clone B6H12, Lab Visions, Inc, Fremont, Calif.). The membrane was stripped and reprobed with a monoclonal antibody against β-actin (Sigma-Aldrich, St. Louis, Mo.).

[3] = test system: ischemic hindlimbs in mice; test: Hindlimb ischemia model; assay type: in vivo, mouse; details: ischemic wild type hindlimbs; for hindlimb tissue necrosis: morpholino 10 μM to thigh musculature
Protocol: Wild type C57BL6, TSP1 null, CD47 null and CD36 null mice, age and sex matched, underwent ligation of the left external iliac and common femoral arteries. The right limb served as control. All animals underwent examination every 24 h to assess clinical ischemia based on a previously published index (Paek et al., J Vasc Surg. 36:172-179, 2002). At the end of 3 or 7 days animals were euthanized, and the tibialis anterior muscles from the right and left limbs were harvested, weighed and processed for mitochondrial viability.
Mitochondrial viability of hindlimb muscle biopsies was assessed by the reduction of a tetrazolium salt to water insoluble formazan through mitochondrial oxidation as described (Bonheur et al., J Surg Res. 116:55-63, 2004). Tibialis anterior muscle biopsies were weighed and incubated in 3 ml of PBS supplemented 1:10 with 3-(4,5-dimethylthiazol-2-yl)-2,5 diphenyl tetrazolium stock (MTT, Promega, Madison, Wis.) for 3 h in the dark at 37° C., washed with distilled water and blotted dry. The formazan salt was extracted in 3 ml of 2-propranol for 6 hours in the dark at 37° C. Absorbance for 200 μl aliquots was determined at 425 nm on a microplate reader. Muscle samples were dried at 90° C. and weighed again. Results were expressed as absorbance normalized to dry tissue weight.

[4] = test system: white hairless Yucatan miniature pig VSMC; test: Intracellular cGMP in porcine VSMC; assay type: cell-based
Protocol: White hairless Yucatan miniature pig VSMC were plated onto culture plates (Nunc, Roskilde, Denmark) at a the indicated cell density in smooth muscle cell growth medium+2% FCS and cultured until approximately 90% confluent. Cultured cells were treated according to the recommendation of the manufacturer with morpholinos (10 μM) and delivery agent (Endoporter® 6 μl/ml) and used within 48 hours of treatment.
White hairless Yucatan miniature pig VSMC (10^4 cells/well) grown overnight in 12-well culture in SM-GM containing 2% FCS and then weaned off serum over 48 h before treatment with NO donors and other agents in serum/additive free medium+0.1% BSA. Intracellular cGMP levels were determined using an enzyme immunoassay (Amersham, GE Health Care, UK).

[5] = WT mice 14-18 months, injected to flap and wound bed
[6] = wild type flaps, local injection, day 7
[7] = wild type flaps, morpholino 10 μM

Row | Substance | flap tissue survival [1, 5] | flap tissue survival [1, 6] | flap necrosis [2] [%] | India ink staining of flap vessels ([2]; post-operative day 3) | CD47 expression (Western) (CD47) | hindlimb tissue necrosis [3] | flap tissue survival ([1]; ApoE-null mice 12-16 months, high fat diet, day 7) [%] | flap mitochondrial viability ([1]; aged WT flaps) | remodeling of collateral flap vessels ([1]; aged WT flaps) | CD47 immunohistochemical staining of flaps [1, 7] | wound bed vascularity [1, 7] | flap tissue survival ([2]; compared to untreated flaps) | ability of TSP1 to suppress NO-stimulated cGMP after pretreatment ([4]; porcine VSMC, TSP1 2.2 nM) | basal cGMP levels ([4]; resting porcine VSMC) | muscle mitochondrial viability [3] | NO-stimulated increase in cGMP ([4]; control and mismatch treated porcine VSMC, TSP1 2.2 nM)
1 | CGTgACAGcCAcGACCgACTGCgCA (antisense CGTGACAGCCACGACCGACTGCGCA; all phosphorodiamidate morpholino (PMO)) [control morpholino, reference compound] | degrees of tissue necrosis comparable to untreated aged WT animals | necrosis comparable to that for untreated wild type flaps | 34±6 | lack of India ink staining of vessels | did not show suppression of CD47 | did not protect | – | – | – | – | – | – | – | – | – | –
2 | CGTCACAGGCAGGACCCACTGCCCA (all phosphorodiamidate morpholino (PMO)) [CD47 morpholino] | 91±4% | ~100% | 12±3 | – | Effective dose-dependent suppression of CD47 | essentially no tissue necrosis | 84±7 | markedly increased | substantial remodeling of existing collateral flap vessels | decreased protein staining | substantial increases in visible blood vessels | significantly more tissue survival | resistant to suppression by TSP1 | elevated | increased muscle mitochondrial viability | –
3 | TSP1: thrombospondin-1 prepared from human platelets | – | – | – | – | – | – | – | – | – | – | – | – | – | – | – | blocked the increase in cGMP
